Assay [1] relates to antibodies in sera from SARS patients (sera 1a, 1b, 2, 6, 37, 62, London, SARS-yellow, SARS-green). In kind it is binding, human. Details: Binding of serum 6 to linear peptides of protein X1 of SARS-CoV Urbani / Binding of serum 37 to linear peptides of protein X1 of SARS-CoV Urbani / Binding of serum 6 to looped/cyclic peptide (PEPSCAN-ELISA) / Binding of serum 37 to looped/cyclic peptide (PEPSCAN-ELISA) / Binding of serum 37 to looped/cyclic peptides of protein X1 of SARS-CoV Urbani / Binding of serum 6 to linear peptides of protein X2 / Binding of serum 37 to linear peptides of protein X2 / Binding of serum 37 to looped/cyclic peptides of protein X2 of SARS-CoV Urbani / Binding of serum 6 to linear peptides of protein M of SARS-CoV Urbani / Binding of serum 37 to linear peptides of protein M of SARS-CoV Urbani / Binding of serum 6 to looped/cyclic peptides of protein M of SARS-CoV Urbani / Binding of serum 37 to looped/cyclic peptides of protein M of SARS-CoV Urbani / Binding of serum 6 to linear peptides of protein X3 of SARS-CoV Urbani / Binding of serum 37 to linear peptides of protein X3 of SARS-CoV Urbani / Binding of serum 37 to looped/cyclic peptides of protein X3 of SARS-CoV Urbani / Binding of serum 6 to linear peptides of protein X4 of SARS-CoV Urbani / Binding of serum 37 to linear peptides of protein X4 of SARS-CoV Urbani / Binding of serum 37 to looped/cyclic peptides of protein X4 of SARS-CoV Urbani / Binding of serum 6 to linear peptides of protein X5 of SARS-CoV Urbani / Binding of serum 37 to linear peptides of protein X5 of SARS-CoV Urbani / Binding of serum 37 to looped/cyclic peptides of protein X5 of SARS-CoV Urbani / Binding of serum 6 to linear peptides of protein N of SARS-CoV Urbani / Binding of serum 37 to linear peptides of protein N of SARS-CoV Urbani / Binding of serum 6 to linear peptide (PEPSCAN-ELISA) / Binding of serum 1a to looped/cyclic peptides of protein N of SARS-CoV Urbani / Binding of serum 1b to looped/cyclic peptides of protein N of SARS-CoV Urbani / Binding of serum 2 to looped/cyclic peptides of protein N of SARS-CoV Urbani / Binding of serum 6 to looped/cyclic peptides of protein N of SARS-CoV Urbani / Binding of serum 37 to looped/cyclic peptides of protein N of SARS-CoV Urbani / Binding of serum 62 to looped/cyclic peptides of protein N of SARS-CoV Urbani / Binding of serum London to looped/cyclic peptides of protein N of SARS-CoV Urbani / Binding of serum SARS-green to looped/cyclic peptides of protein N of SARS-CoV Urbani: unit not given here.

Assay [2] has as its system control sera (pooled serum of ten healthy LUMC hospital workers; commercial negative donor pooled serum from the Dutch bloodbank). It counts as binding, human. Set-up: Binding of Control serum LUMC to linear peptides / Binding of Control serum Blood-bank to linear peptides / Binding of Control serum LUMC to looped peptides / Binding of Control Serum Blood-Bank to Looped peptides / Binding of Control serum LUMC to linear peptides of the protein M of SARS-CoV Urbani / Binding of Control serum Blood-bank to linear peptides of the protein M of SARS-CoV Urbani / Binding of Control serum LUMC to looped peptides of the protein M of SARS-CoV Urbani / Binding of Control Serum Blood-Bank to Looped peptides of the protein M of SARS-CoV Urbani: unit not given here.

The subject of assay [3] is rabbit serum obtained by immunizing a rabbit with the SARS-CoV strain Frankfurt 1. In kind it is binding. Set-up: Binding of a rabbit serum to linear peptides / Binding of a rabbit serum to looped peptides / Rabbit serum linear peptides / Rabbit serum looped peptides / Binding of a rabbit serum to linear peptides of protein N of SARS-CoV Urbani (Rabbit serum linear peptides) / Binding of a rabbit serum to looped/cyclic peptides of protein N of SARS-CoV Urbani (Rabbit serum looped peptides): unit not given here.

Turning to LIVFTSCELYHYQEC, in assay [1], the “Binding of serum 1a to linear peptides of protein X4 of SARS-CoV Urbani” value was determined as 0.8, the “Binding of serum 1a to looped/cyclic peptides of protein X4 of SARS-CoV Urbani” value stood at 0.8, the “Binding of serum 1b to linear peptides of protein X4 of SARS-CoV Urbani” value is listed as 0.8 and the “Binding of serum 1b to looped/cyclic peptides of protein X4 of SARS-CoV Urbani” value is reported as 0.6. Also, in assay [1], the “Binding of serum 2 to linear peptides of protein X4 of SARS-CoV Urbani” value came out at 0.6, the “Binding of serum 2 to looped/cyclic peptides of protein X4 of SARS-CoV Urbani” value is 0.6, the “Binding of serum 6 to linear peptides of protein X4 of SARS-CoV Urbani” value is reported as 0.6 and the “Binding of serum 6 to looped/cyclic peptides of protein X4 of SARS-CoV Urbani” value is on record as 0.5. In addition, in assay [1], the “Binding of serum 37 to linear peptides of protein X4 of SARS-CoV Urbani” value is 1.0, the “Binding of serum 37 to looped/cyclic peptides of protein X4 of SARS-CoV Urbani” value came out at 0.7, the “Binding of serum 62 to linear peptides of protein X4 of SARS-CoV Urbani” value was determined as 1.0 and the “Binding of serum 62 to looped/cyclic peptides of protein X4 of SARS-CoV Urbani” value is recorded as 0.7. In assay [1], the “Binding of serum London to linear peptides of protein X4 of SARS-CoV Urbani” value was 0.8, the “Binding of serum London to looped/cyclic peptides of protein X4 of SARS-CoV Urbani” value is 0.3, the “Binding of serum SARS-green to linear peptides of protein X4 of SARS-CoV Urbani” value stood at 1.1 and the “Binding of serum SARS-green to looped/cyclic peptides of protein X4 of SARS-CoV Urbani” value was 0.5. In assay [1], the “Binding of serum SARS-yellow to linear peptides of protein X4 of SARS-CoV Urbani” value came to 0.6 and the “Binding of serum SARS-yellow to looped/cyclic peptides of protein X4 of SARS-CoV Urbani” value worked out at 0.6. Moreover, in assay [2], the “Binding of Control Serum Blood-Bank to Looped peptides” value is recorded as 0.7, the “Binding of Control serum Blood-bank to linear peptides” value is reported as 0.6, the “Binding of Control serum LUMC to linear peptides” value worked out at 0.7 and the “Binding of Control serum LUMC to looped peptides” value worked out at 0.8. Besides, in assay [3], the “Rabbit serum linear peptides” value was determined as 0.5 and the “Rabbit serum looped peptides” value is 0.5.
As for LIYFLQCINACRIIM, in assay [1], the “Binding of serum 1a to linear peptides of protein X1 of SARS-CoV Urbani” value is given as 0.7, the “Binding of serum 1a to looped/cyclic peptide (PEPSCAN-ELISA)” value stood at 0.2, the “Binding of serum 1b to linear peptides of protein X1 of SARS-CoV Urbani” value came out at 0.6 and the “Binding of serum 1b to looped/cyclic peptide (PEPSCAN-ELISA)” value worked out at 0.4. For the same sequence, in assay [1], the “Binding of serum 2 to linear peptides of protein X1 of SARS-CoV Urbani” value stood at 0.6, the “Binding of serum 2 to looped/cyclic peptide (PEPSCAN-ELISA)” value turned out to be 0.7, the “Binding of serum 6 to linear peptides of protein X1 of SARS-CoV Urbani” value came out at 0.5 and the “Binding of serum 6 to looped/cyclic peptide (PEPSCAN-ELISA)” value is listed as 1.2. Besides, in assay [1], the “Binding of serum 37 to linear peptides of protein X1 of SARS-CoV Urbani” value worked out at 0.6, the “Binding of serum 37 to looped/cyclic peptide (PEPSCAN-ELISA)” value amounted to 0.2, the “Binding of serum 62 to linear peptides of protein X1 of SARS-CoV Urbani” value is listed as 0.6 and the “Binding of serum 62 to looped/cyclic peptide (PEPSCAN-ELISA)” value was found to be 0.4. In assay [1], the “Binding of serum London to linear peptides of protein X1 of SARS-CoV Urbani” value came out at 0.3, the “Binding of serum London to looped/cyclic peptide (PEPSCAN-ELISA)” value was 1.1, the “Binding of serum SARS-green to linear peptides of protein X1 of SARS-CoV Urbani” value was 0.2 and the “Binding of serum SARS-green to looped/cyclic peptide (PEPSCAN-ELISA)” value was 0.6. For the same sequence, in assay [1], the “Binding of serum SARS-yellow to linear peptides of protein X1 of SARS-CoV Urbani” value is listed as 0.4 and the “Binding of serum SARS-yellow to looped/cyclic peptide (PEPSCAN-ELISA)” value is on record as 0.6. Besides, in assay [2], the “Binding of Control Serum Blood-Bank to Looped peptides” value is 0.9, the “Binding of Control serum Blood-bank to linear peptides” value is reported as 0.6, the “Binding of Control serum LUMC to linear peptides” value is given as 0.6 and the “Binding of Control serum LUMC to looped peptides” value was found to be 0.7. In assay [3], the “Binding of a rabbit serum to linear peptides” value came out at 0.1 and the “Binding of a rabbit serum to looped peptides” value turned out to be 0.3.
As to LKEPCPSGTYEGNSP, in assay [1], the “Binding of serum 1a to linear peptides of protein X4 of SARS-CoV Urbani” value came out at 0.7, the “Binding of serum 1a to looped/cyclic peptides of protein X4 of SARS-CoV Urbani” value was 0.6, the “Binding of serum 1b to linear peptides of protein X4 of SARS-CoV Urbani” value was determined as 0.4 and the “Binding of serum 1b to looped/cyclic peptides of protein X4 of SARS-CoV Urbani” value was found to be 0.5. For the same sequence, in assay [1], the “Binding of serum 2 to linear peptides of protein X4 of SARS-CoV Urbani” value was 0.4, the “Binding of serum 2 to looped/cyclic peptides of protein X4 of SARS-CoV Urbani” value stood at 0.5, the “Binding of serum 6 to linear peptides of protein X4 of SARS-CoV Urbani” value amounted to 0.3 and the “Binding of serum 6 to looped/cyclic peptides of protein X4 of SARS-CoV Urbani” value was determined as 0.3. For the same sequence, in assay [1], the “Binding of serum 37 to linear peptides of protein X4 of SARS-CoV Urbani” value amounted to 0.6, the “Binding of serum 37 to looped/cyclic peptides of protein X4 of SARS-CoV Urbani” value stood at 0.5, the “Binding of serum 62 to linear peptides of protein X4 of SARS-CoV Urbani” value was 0.7 and the “Binding of serum 62 to looped/cyclic peptides of protein X4 of SARS-CoV Urbani” value is on record as 0.6. In addition, in assay [1], the “Binding of serum London to linear peptides of protein X4 of SARS-CoV Urbani” value is 0.9, the “Binding of serum London to looped/cyclic peptides of protein X4 of SARS-CoV Urbani” value came out at 0.3, the “Binding of serum SARS-green to linear peptides of protein X4 of SARS-CoV Urbani” value was found to be 0.5 and the “Binding of serum SARS-green to looped/cyclic peptides of protein X4 of SARS-CoV Urbani” value came out at 0.6. Besides, in assay [1], the “Binding of serum SARS-yellow to linear peptides of protein X4 of SARS-CoV Urbani” value came out at 0.2 and the “Binding of serum SARS-yellow to looped/cyclic peptides of protein X4 of SARS-CoV Urbani” value was determined as 0.2. For the same sequence, in assay [2], the “Binding of Control Serum Blood-Bank to Looped peptides” value is on record as 0.5, the “Binding of Control serum Blood-bank to linear peptides” value came out at 0.6, the “Binding of Control serum LUMC to linear peptides” value turned out to be 0.3 and the “Binding of Control serum LUMC to looped peptides” value stood at 0.7. In addition, in assay [3], the “Rabbit serum linear peptides” value turned out to be 0.4 and the “Rabbit serum looped peptides” value is 0.0.
Regarding LKILVRYNTRGNTYS, in assay [1], the “Binding of serum 1a to linear peptides of protein X5 of SARS-CoV Urbani” value is reported as 0.7, the “Binding of serum 1a to looped/cyclic peptides of protein X5 of SARS-CoV Urbani” value was 0.5, the “Binding of serum 1b to linear peptides of protein X5 of SARS-CoV Urbani” value was 0.6 and the “Binding of serum 1b to looped/cyclic peptides of protein X5 of SARS-CoV Urbani” value is given as 0.4. In assay [1], the “Binding of serum 2 to linear peptides of protein X5 of SARS-CoV Urbani” value is 0.8, the “Binding of serum 2 to looped/cyclic peptides of protein X5 of SARS-CoV Urbani” value stood at 0.6, the “Binding of serum 6 to linear peptides of protein X5 of SARS-CoV Urbani” value worked out at 0.8 and the “Binding of serum 6 to looped/cyclic peptides of protein X5 of SARS-CoV Urbani” value was determined as 0.5. Besides, in assay [1], the “Binding of serum 37 to linear peptides of protein X5 of SARS-CoV Urbani” value is recorded as 0.7, the “Binding of serum 37 to looped/cyclic peptides of protein X5 of SARS-CoV Urbani” value is 0.5, the “Binding of serum 62 to linear peptides of protein X5 of SARS-CoV Urbani” value is recorded as 0.8 and the “Binding of serum 62 to looped/cyclic peptides of protein X5 of SARS-CoV Urbani” value is 0.7. Moreover, in assay [1], the “Binding of serum London to linear peptides of protein X5 of SARS-CoV Urbani” value is reported as 0.7, the “Binding of serum London to looped/cyclic peptides of protein X5 of SARS-CoV Urbani” value is 0.2, the “Binding of serum SARS-green to linear peptides of protein X5 of SARS-CoV Urbani” value stood at 0.6 and the “Binding of serum SARS-green to looped/cyclic peptides of protein X5 of SARS-CoV Urbani” value was found to be 0.4. For the same sequence, in assay [1], the “Binding of serum SARS-yellow to linear peptides of protein X5 of SARS-CoV Urbani” value is given as 0.3 and the “Binding of serum SARS-yellow to looped/cyclic peptides of protein X5 of SARS-CoV Urbani” value is 0.8. Also, in assay [2], the “Binding of Control Serum Blood-Bank to Looped peptides” value is reported as 0.4, the “Binding of Control serum Blood-bank to linear peptides” value stood at 0.7, the “Binding of Control serum LUMC to linear peptides” value was 0.5 and the “Binding of Control serum LUMC to looped peptides” value is 0.6. Also, in assay [3], the “Rabbit serum linear peptides” value is 0.9 and the “Rabbit serum looped peptides” value worked out at 0.1.

The values are drawn from patent US20070128217A1 (priority 2003, published 2007).
